Test results published in patent US20230131899A1, “INHIBITORS OF MICROBIALLY INDUCED AMYLOID” (Axial Therapeutics, Inc., priority 2020, published 2023).
Like-named read-outs stand apart in the source and are kept apart here.

How the values were obtained:
[1] = tested on: CsgA gene expression (csgBAC promoter-GFP reporter) in E. coli UTI89; assay: In vitro live cell fluorescent reporter assay of CsgA transcription (Reporter Assay); format: cell-based
Protocol: In vitro live cell fluorescent reporter assay to determine effects of compounds on CsgA transcription. To assess the impact of compounds on CsgA gene expression, a live cell assay was performed using an engineered strain of E. coli UTI89 with a fluorescent CsgA gene expression reporter driven by the csgBAC promoter. In the reporter strain, a gene encoding Green Fluorescent Protein (GFP) was placed immediately downstream of the full intergenic region between csgDEF and csgBAC, containing the csgBAC promoter and other transcriptional regulatory elements, and inserted in single copy into the E. coli UTI89 chromosome, as described in Cegelski et. al., “Small-molecule inhibitors target Escherichia coli amyloid biogenesis and biofilm formation,” Nat. Chem. Bio., 25 Oct. 2009. With this construct, GFP expression in the reporter strain was under the same regulation as CsgA expression. The reporter strain was struck out on a YESCA agar plate (1 g/L yeast extract, 10 g/L casamino acids, 20 g/L Bacto Agar) and grown at about 27° C. for 2 days, or until single colonies were sufficiently large to pick. A single colony of the reporter strain was used to inoculate 5 mL of YESCA broth (1 g/L yeast extract, 10 g/L casamino acids), which was grown overnight at about 27° C. The inoculum was diluted 1:10 in YESCA broth and the optical density at 600 nm (OD600) was measured on a SpectraMax M2 or M5e (Molecular Devices, San Jose, Calif.) spectrophotometer in cuvettes. The culture was then further diluted to achieve a final OD600 of 0.003, which was confirmed by measurement of the OD600. Compounds were diluted in dimethyl sulfoxide (DMSO) and plated on black clear-bottomed tissue culture-treated 96-well plates with 1.5 μL/well for final test concentrations from 0.14-100 μM. All assay wells, including vehicle controls and positive controls for inhibition, included 1% DMSO final. Vehicle control wells consisted of DMSO and the reporter strain to assess the expression of the reporter strain in the assay in the absence of any compound. […] 148.5 μL culture at OD600 0.003 in YESCA broth was added to all wells for 150 μL final volume. Plates were incubated at 27° C. for 20 hours, then GFP fluorescence signal for each well was read on a Spectramax M2 or M5e plate reader with excitation at 485 nm, emission at 525 nm, and a cutoff at 515 nm. OD600 for each well was also measured on the Spectramax M2 or M5e plate reader. […] Background fluorescence was subtracted from all wells, then fluorescence signal for each well was normalized to the mean of the vehicle control wells. Normalized dose response curves were plotted for each compound, and compound inhibition of CsgA transcription was determined by assessing the curve-fit IC50, bottom, top, span (top-bottom), and Hill slope using GraphPad Prism software version 8.1.1 (GraphPad Software, San Diego, Calif.). An additional metric used to evaluate compounds was the concentration at which the curve reached 50% of the expression level of the vehicle control. This was written as a custom analysis in GraphPad Prism according to the formula X[50], or the X value at which Y=50, ie, the compound concentration at which fluorescence of the reporter strain was calculated to reach 50% of the vehicle control fluorescence. Separately from the fluorescence data, OD600 values were normalized to the mean of the vehicle control wells, and dose response curves were plotted for each compound. OD600 reduction of greater than 10% indicated compounds had some toxicity or negative impact on bacterial growth. […]

E. coli CsgA = molecular target: T1, E. coli CsgA (Escherichia coli, UniProt P28307); assay: In vitro ThioflavinT assay of CsgA aggregation (CsgA ThT Assay); format: biochemical; conditions: 1005 minutes; for remaining activity at 25 µM / CsgA ThT Assay (10 μM CsgA) % Control AUC at 1005 minutes, 25 μM (activity range) / CsgA ThT Assay (10 μM CsgA) % Control AUC at 1005 minutes, 25 μM: compound 25 μM; for remaining activity at 100 µM / CsgA ThT Assay (10 μM CsgA) % Control AUC at 1005 minutes, 100 μM (activity range) / CsgA ThT Assay (10 μM CsgA) % Control AUC at 1005 minutes, 100 μM: compound 100 μM; for CsgA ThT Assay (10 μM CsgA) % Control AUC at 1005 minutes, 25 μM / CsgA ThT Assay (10 μM CsgA) % Control AUC at 1005 minutes, 100 μM: mean AUC as % of DMSO control
T1 construct: made in house; host or cells: E. coli NEB 3016 slyD::kan, pET11d
T1 sequence (P28307 23-151): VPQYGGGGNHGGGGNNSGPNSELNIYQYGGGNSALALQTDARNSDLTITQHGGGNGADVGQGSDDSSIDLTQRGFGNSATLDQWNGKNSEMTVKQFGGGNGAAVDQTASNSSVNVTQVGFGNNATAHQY
Protocol: In vitro ThioflavinT assay to determine effects of compounds on CsgA aggregation. To assess the effects of compounds on aggregation of E. coli CsgA, a cell-free assay was performed using purified CsgA and Thioflavin T. In the assay, histidine-tagged CsgA was over-expressed in E. coli NEB 3016 slyD::kan cells harboring a pET11d vector containing a C-terminal 6× His tag. Following growth in rich media, CsgA production is induced at an OD600 of approximately 1.0 by addition of 0.5 mM IPTG (isopropyl beta-D-1-thiogalactopyranoside) followed by incubation at 37° C. for 1-4 hours with shaking at 200-250 rpm. Bacteria were resuspended in 8 M guanidine hydrochloride in 50 mM potassium phosphate buffer, pH 7.3 and lysed by sonication on ice using three 20 second intervals. The resulting lysate was incubated on a platform rocker for 1 hour at room temperature. After centrifugation at 10,000×g for 20 minutes, the supernatant was further sonicated on ice for three 20 second intervals and then incubated with nickel-nitrilotriacetic acid resin (Sigma) at room temperature for 1 hour in a 50 mL conical tube on a platform rocker. The resin was washed and pelleted 5 times with 45 mL 8 M guanidine in 50 mM potassium phosphate buffer pH 7.3. The resin was further washed and pelleted two times with 8 M guanidine hydrochloride in 50 mM potassium phosphate buffer pH 7.3 containing 12.5 mM imidazole. Purified CsgA protein was eluted two times with 5 mL of 6-8 M guanidine hydrochloride in 50 mM potassium phosphate buffer, pH 7.3 containing 250 mM imidazole. The eluted protein was aliquoted with 150 μL per aliquot, snap frozen in liquid nitrogen, and stored at −80 C. In order to obtain monomeric CsgA, the purified CsgA protein was thawed and passed through two pre-chilled desalting columns (Zeba) to remove imidazole and guanidine. The buffer exchanged protein was loaded onto a 30-kDa centrifugal filter unit (Amicon) and spun for 30 minutes at 7500×g to remove dimers and other oligomers. Protein concentration was assessed by the NanoDrop technique (Thermo Scientific), as is familiar to one skilled in the art. The CsgA aggregation assay was conducted in 96-well black non-binding surface or white untreated microplates with 20-40 μM ThioflavinT, 50 mM potassium phosphate buffer pH 7.3, 1% DMSO, CsgA at 2-20 μM, and compounds at 3.125-200 uM. The vehicle control wells contain all components of the assay except test compounds and represent the level of CsgA aggregation in the absence of any inhibitor or accelerator. Plates were incubated at room temperature in a Tecan Nano F200 plate reader with excitation at 438 nm using a 439 nm filter with a bandwidth of 8 nm, and emission at 495 nm with a 490 nm filter with a bandwidth of 10 nm, or in a SpectraMax M5, SpectraMax M2 or SpectraMax® i3X (Molecular Devices, San Jose, Calif.) spectrophotometer with excitation at 438 nm and emission at 495 nm. During the assay, plates were shaken initially for 5 seconds and subsequently for 3 seconds prior to fluorescent readings. Readings were performed every 15 minutes for up to 1005 minutes. The effect of compounds on CsgA aggregation in the assay was determined with data from 0-17 hours. Fluorescence values for each compound with CsgA were first adjusted by subtracting the average fluorescence of the compound in the absence of CsgA or in the presence of CsgA and compound at time 0 or 15 minutes. The data were analyzed in several ways:
1. The adjusted ThT fluorescence values were normalized by dividing them by the average fluorescence in the vehicle control wells containing CsgA. The median normalized fluorescence from 6-6.5 hours or 8-9 hours with the compound was expressed as a percentage of the median fluorescence observed in vehicle controls over the same time period. Percent inhibition of CsgA aggregation by a compound was determined by subtracting the percent average fluorescence with the compound relative to the vehicle controls from 100%. […]

[2] = Escherichia coli, read-out: Reporter Assay Abs IC50 (activity range), median Abs IC50 in the CsgA reporter assay, class symbol
[3] = Escherichia coli, read-out: Reporter Assay Abs IC50 (μM), median Abs IC50 in the CsgA reporter assay, N/A = maximum expression reduction is <50% of control
[4] = read-out: CsgA ThT Assay (10 μM CsgA) % Control AUC at 1005 minutes, 25 μM (activity range), CsgA 10 μM, black plates, class symbol
[5] = read-out: CsgA ThT Assay (10 μM CsgA) % Control AUC at 1005 minutes, 25 μM, mean AUC as % of DMSO control, CsgA 10 μM, black plates
[6] = read-out: CsgA ThT Assay (10 μM CsgA) % Control AUC at 1005 minutes, 100 μM (activity range), CsgA 10 μM, black plates, class symbol
[7] = read-out: CsgA ThT Assay (10 μM CsgA) % Control AUC at 1005 minutes, 100 μM, mean AUC as % of DMSO control, CsgA 10 μM, black plates
[8] = read-out: Reporter Assay Abs IC50 (activity range), median Abs IC50 in the CsgA reporter assay, class symbol
[9] = read-out: Reporter Assay Abs IC50, median Abs IC50 in the CsgA reporter assay, N/A = maximum expression reduction is <50% of control
[10] = CsgA 10 μM, black plates, class symbol

Row | SMILES | IC50 [1, 2] [µM] | IC50 [1, 3] [µM] | remaining activity at 25 µM (E. coli CsgA; [4]) [%] | remaining activity at 25 µM (E. coli CsgA; [5]) [%] | remaining activity at 100 µM (E. coli CsgA; [6]) [%] | remaining activity at 100 µM (E. coli CsgA; [7]) [%] | IC50 [1, 8] [µM] | IC50 [1, 9] [µM] | CsgA ThT Assay (10 μM CsgA) % Control AUC at 1005 minutes, 25 μM (activity range) (E. coli CsgA; [10]) | CsgA ThT Assay (10 μM CsgA) % Control AUC at 1005 minutes, 100 μM (activity range) (E. coli CsgA; [10]) | CsgA ThT Assay (10 μM CsgA) % Control AUC at 1005 minutes, 25 μM (E. coli CsgA; CsgA 10 μM, black plates) [%] | CsgA ThT Assay (10 μM CsgA) % Control AUC at 1005 minutes, 100 μM (E. coli CsgA; CsgA 10 μM, black plates) [%]
1 | CCN1CC(C(=O)O)n2c(c(-c3cccc(C(F)(F)F)c3)c(Cc3cccc4ccccc34)cc2=O)S1(=O)=O (racemic) [Compound 015, 2-ethyl-8-(naphthalen-1-ylmethyl)-6-oxo-9-(3-(trifluoromethyl)phenyl)-3,4-dihydro-2H,6H-pyrido[1,2-e][1,2,5]thiadiazine-4-carboxylic acid 1,1-dioxide] | 4.6 to 10 | 8 | 11 to 31 | 28 | 11 to 31 | 27 |  |  |  |  |  | 
2 | O=C(O)C1CSc2c(-c3cccc(C(F)(F)F)c3)c(Cc3cccc4ccccc34)cc(=O)n21 (single isomer, unassigned) [Compound 011b, 7-(naphthalen-1-ylmethyl)-5-oxo-8-(3-(trifluoromethyl)phenyl)-2,3-dihydro-5H-thiazolo[3,2-a]pyridine-3-carboxylic acid] |  |  |  |  |  |  | 1.3 to 4.5 | 4.1 | (++) (% control AUC of 31 to 60%) | (++) (% control AUC of 31 to 60%) | 54 | 53
3 | O=C(O)C1CS(=O)(=O)c2c(-c3cccc(C(F)(F)F)c3)c(Cc3cccc4ccccc34)cc(=S)n21 (single isomer, unassigned) [Compound 014b, 7-(naphthalen-1-ylmethyl)-5-thioxo-8-(3-(trifluoromethyl)phenyl)-2,3-dihydro-5H-thiazolo[3,2-a]pyridine-3-carboxylic acid 1,1-dioxide] | > 10 | 44 |  |  |  |  |  |  | (+) (% control AUC of greater than 60%) | (+++) (% control AUC of 11 to 31%) | 71 | 26
4 | CCN1CC(C(=O)O)n2c(c(-c3cccc(C(F)(F)F)c3)c(Cc3cccc4ccccc34)cc2=O)S1(=O)=O (single isomer, unassigned) [Compound 015b, 2-ethyl-8-(naphthalen-1-ylmethyl)-6-oxo-9-(3-(trifluoromethyl)phenyl)-3,4-dihydro-2H,6H-pyrido[1,2-e][1,2,5]thiadiazine-4-carboxylic acid 1,1-dioxide] |  |  |  |  |  |  | > 10 | 22.5 | (+++) (% control AUC of 11 to 31%) | (+++) (% control AUC of 11 to 31%) | 29 | 23
5 | CCCN1CC(C(=O)O)n2c(c(-c3cccc(C(F)(F)F)c3)c(Cc3cccc4ccccc34)cc2=O)S1(=O)=O (single isomer, unassigned) [Compound 016a, 8-(naphthalen-1-ylmethyl)-6-oxo-2-propyl-9-(3-(trifluoromethyl)phenyl)-3,4-dihydro-2H,6H-pyrido[1,2-e][1,2,5]thiadiazine-4-carboxylic acid 1,1-dioxide] | 4.6 to 10 | 8.3 |  | 21 | 11 to 31 | 14 |  |  | (+++) (% control AUC of 11 to 31%) |  |  | 
6 | Nc1c(Cc2cccc3ccccc23)c(-c2cccc(C(F)(F)F)c2)c2n(c1=O)C(C(=O)O)CS2 (single isomer, unassigned) [Compound 020a, 6-amino-7-(naphthalen-1-ylmethyl)-5-oxo-8-(3-(trifluoromethyl)phenyl)-2,3-dihydro-5H-thiazolo[3,2-a]pyridine-3-carboxylic acid] |  | 4.4 | 11 to 31 | 27 | 11 to 31 | 20 | 1.3 to 4.5 |  |  |  |  | 
